From patent US20140357487A1, “PLANTS HAVING INCREASED TOLERANCE TO HERBICIDES” (BASF SE, priority 2011, published 2014)
pKi: −log10 of the molar value.

What was measured:
Assay type in all cases: biochemical
[1] = target: T1, Hordeum HPPD variant L320N (Hordeum vulgare, UniProt O48604, A164G/L320N/R146V/R147D/R148G); test: HPPD activity assay, Hordeum HPPD mutant L320N; conditions: normalized on Hordeum wild-type HPPD
T1 construct: His (N); made in house; host or cells: E. coli BL21 (DE3)
Experimental: (§1) HPPD produces homogentisic acid and CO2 from 4-hydroxyphenylpyruvate (4-HPP) and O2. The activity assay for HPPD is based on the analysis of homogentisic acid by reversed phase HPLC.
(§2) The assay mixture can contain 150 mM potassium phosphate buffer pH 7.0, 50 mM L-ascorbic acid, 1 μM FeSO4 and 7 μg of purified enzyme in a total volume of 1 ml.
(§3) Inhibitors are dissolved in DMSO (dimethylsulfoxide) to a concentration of 20 mM or 0.5 mM, respectively. From this stock solution serial five-fold dilutions are prepared in DMSO, which are used in the assay. The respective inhibitor solution accounts for 1% of the assay volume. […] After a preincubation of 30 min the reaction is started by adding 4-HPP to a final concentration of 0.1 mM. The reaction is allowed to proceed for 120 min at room temperature. The reaction is stopped by addition of 100 μl of 4.5 M phosphoric acid.
(§4) Activities are normalized by setting the uninhibited enzyme activity to 100%. IC50 values are calculated using non-linear regression.
(§5) The assay mixture can contain 150 mM potassium phosphate buffer pH 7.0, 50 mM L-ascorbic acid, 100 μM Catalase (Sigma-Aldrich), 1 μM FeSO4 and 0.2 units of purified HPPD enzyme in a total volume of 505 μl. 1 unit is defined as the amount of enzyme that is required to produce 1 nmol of HGA per minute at 20° C.
(§6) Inhibitors are dissolved in DMSO (dimethylsulfoxide) to a concentration of 0.5 mM. From this stock solution serial five-fold dilutions are prepared in DMSO, which are used in the assay. The respective inhibitor solution accounts for 1% of the assay volume. […] Activities are normalized by setting the uninhibited enzyme activity to 100%. IC50 values are calculated using non-linear regression.
(§7) Purified, mutant HPPD enzymes are obtained by the methods described above. Dose response and kinetic measurements are carried out using the described HPPD activity assay. Apparent michaelis constants (Km) and maximal reaction velocities (Vmax) are calculated by non-linear regression with the software GraphPad Prism 5 (GraphPad Software, La Jolla, USA) using a substrate inhibition model.
(§8) Field performance of the optimized HPPD enzyme, which is used as a herbicide tolerance trait may depend not only on its lack of sensitivity towards HPPD inhibiting herbicides but also on its activity. To assess the potential performance of a herbicide tolerance trait a tolerance index (TI) is calculated using the following formula: […]
(§9) Easy comparison and ranking of each trait is enabled by normalizing tolerance indexes on Arabidopsis or Hordeum wild-type HPPD.

[2] = target: T2, Hordeum HPPD variant L353M, P321R, V212I (Hordeum vulgare, UniProt O48604, L353M/P321R/V212I); test: HPPD activity assay, Hordeum HPPD mutant L353M, P321R, V212I; conditions: normalized on Hordeum wild-type HPPD
T2 construct: His (N); made in house; host or cells: E. coli BL21 (DE3)
Experimental: as §1, §2, §3, §4, §5, §6, §7, §8, §9

[3] = target: T3, Hordeum HPPD variant L320H, P321A (Hordeum vulgare, UniProt O48604, L320H/P321A); test: HPPD activity assay, Hordeum HPPD mutant L320H, P321A; conditions: normalized on Hordeum wild-type HPPD
T3 construct: His (N); made in house; host or cells: E. coli BL21 (DE3)
Experimental: as §1, §2, §3, §4, §5, §6, §7, §8, §9

[4] = target: T4, Arabidopsis HPPD (SEQ ID: 53) (Arabidopsis thaliana, UniProt P93836); test: HPPD activity assay, Arabidopsis wild-type HPPD; parameters: key to Normalized tolerance index TI: tolerance index relative to Arabidopsis wild-type HPPD (= 1); conditions: for Normalized tolerance index TI: normalized on Arabidopsis wild-type HPPD; for tolerance index TI: not normalized
T4 construct: His6 (N); made in house; host or cells: E. coli BL21 (DE3)
T4 sequence (P93836 1-445): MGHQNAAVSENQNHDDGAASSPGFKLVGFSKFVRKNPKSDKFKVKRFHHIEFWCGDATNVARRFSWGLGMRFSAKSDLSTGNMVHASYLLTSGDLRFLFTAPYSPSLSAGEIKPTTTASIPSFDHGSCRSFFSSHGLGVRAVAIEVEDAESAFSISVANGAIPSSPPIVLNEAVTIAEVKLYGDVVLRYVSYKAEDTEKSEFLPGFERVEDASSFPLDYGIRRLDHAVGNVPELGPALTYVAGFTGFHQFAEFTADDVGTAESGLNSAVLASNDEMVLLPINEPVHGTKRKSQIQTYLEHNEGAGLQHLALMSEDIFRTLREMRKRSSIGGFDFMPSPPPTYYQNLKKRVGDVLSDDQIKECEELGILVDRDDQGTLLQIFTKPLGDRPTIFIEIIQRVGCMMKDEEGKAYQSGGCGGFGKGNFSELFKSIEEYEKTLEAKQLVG
Experimental: as §1, §2, §3, §4, §5, §6
Using methods which are described in the above examples or well known in the art, purified, recombinant wildtype HPPD enzymes are characterized with respect to their kinetic properties and sensitivity towards HPPD inhibiting herbicides. Apparent michaelis constants (Km) and maximal reaction velocities (Vmax) are calculated by non-linear regression with the software GraphPad Prism 5 (GraphPad Software, La Jolla, USA) using a substrate inhibition model.
as §8, with “of the HPPD enzyme,” for “of the optimized HPPD enzyme,”, “herbicide tolerance trait, may depend” for “herbicide tolerance trait may depend”
Easy comparison and ranking of each trait is enabled by normalizing tolerance indexes on Arabidopsis wild-type HPPD.

[5] = target: T5, Hordeum HPPD variant L320H (Hordeum vulgare, UniProt O48604, A164G/L320H/R146V/R147D/R148G); test: HPPD activity assay, Hordeum HPPD mutant L320H; conditions: normalized on Hordeum wild-type HPPD
T5 construct: His (N); made in house; host or cells: E. coli BL21 (DE3)
Experimental: as §1, §2, §3, §4, §5
Inhibitors are dissolved in DMSO (dimethylsulfoxide) to a concentration of 0.5 mM. […] IC50 values are calculated using non-linear regression.
Purified, mutant HPPD enzymes are obtained by the methods described above. […] Apparent michaelis constants (Km) and maximal reaction velocities (Vmax) are calculated by non-linear regression with the software GraphPad Prism 5 (GraphPad Software, La Jolla, USA) using a substrate inhibition model.
as §8

[6] = target: T6, Hordeum HPPD variant V212L (Hordeum vulgare, UniProt O48604, A164G/R146V/R147D/R148G/V212L); test: HPPD activity assay, Hordeum HPPD mutant V212L; conditions: normalized on Hordeum wild-type HPPD
T6 construct: His (N); made in house; host or cells: E. coli BL21 (DE3)
Experimental: as §1, §2, §3, §4, §5, §6, §7, §8, §9

[7] = Arabidopsis HPPD Wildtype, Table 15

T6 sequence (O48604 whole entry R146V/R147D/R148G/A164G/V212L): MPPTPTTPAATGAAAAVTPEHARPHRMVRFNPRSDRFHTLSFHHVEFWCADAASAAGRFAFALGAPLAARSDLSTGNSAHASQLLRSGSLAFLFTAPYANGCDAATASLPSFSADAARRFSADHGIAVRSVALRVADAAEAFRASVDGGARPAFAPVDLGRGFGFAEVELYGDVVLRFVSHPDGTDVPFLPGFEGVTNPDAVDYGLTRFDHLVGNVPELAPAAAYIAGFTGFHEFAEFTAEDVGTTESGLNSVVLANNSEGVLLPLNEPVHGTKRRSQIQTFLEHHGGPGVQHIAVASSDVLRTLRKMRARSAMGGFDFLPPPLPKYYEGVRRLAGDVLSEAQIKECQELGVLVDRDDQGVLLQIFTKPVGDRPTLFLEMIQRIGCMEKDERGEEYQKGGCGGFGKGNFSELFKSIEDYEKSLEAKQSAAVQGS
T1 sequence (O48604 whole entry R146V/R147D/R148G/A164G/L320N): as the sequence (O48604 whole entry R146V/R147D/R148G/A164G/V212L) above, with L212V, L320N counted along it
T5 sequence (O48604 whole entry R146V/R147D/R148G/A164G/L320H): as the sequence (O48604 whole entry R146V/R147D/R148G/A164G/V212L) above, with L212V, L320H counted along it
T3 sequence (O48604 whole entry R146V/R147D/R148G/A164G/L320H/P321A): as the sequence (O48604 whole entry R146V/R147D/R148G/A164G/V212L) above, with L212V, L320H, P321A counted along it
T2 sequence (O48604 whole entry R146V/R147D/R148G/A164G/V212I/P321R/L353M): as the sequence (O48604 whole entry R146V/R147D/R148G/A164G/V212L) above, with L212I, P321R, L353M counted along it

CC1=NOC(c2c(Cl)ccc(C3=C(O)c4ncccc4C(C)(C)S3(=O)=O)c2Cl)C1 (stereo not shown) [Inhibitor 1, 7-[2,4-dichloro-3-(3-methyl-4,5-dihydroisoxazol-5-yl)phenyl]-5,5-dimethyl-6,6-dioxo-thiopyrano[4,3-b]pyridin-8-ol]
Normalized tolerance index TI [1]: 2 | Normalized tolerance index TI [2]: 2.2 | Normalized tolerance index TI [3]: 5.2 | pKi [4]: 8.39 | Normalized tolerance index TI [4, 7]: 1 | Normalized tolerance index TI ([4]; Arabidopsis HPPD, Table 12): 1 | tolerance index TI ([4]; Arabidopsis HPPD): 4E−3 | Normalized tolerance index TI [5]: 8.5 | Normalized tolerance index TI [6]: 0.8

CC1(C)c2cccnc2C(O)=C(c2ccc(Cl)nc2Cl)S1(=O)=O [Inhibitor 2, 7-(2,6-dichloro-3-pyridyl)-5,5-dimethyl-6,6-dioxo-thiopyrano[4,3-b]pyridin-8-ol]
Normalized tolerance index TI [1]: 1.7 | Normalized tolerance index TI [2]: 1.5 | Normalized tolerance index TI [3]: 2.5 | pKi [4]: 8.38 | Normalized tolerance index TI [4, 7]: 1 | Normalized tolerance index TI ([4]; Arabidopsis HPPD, Table 12): 1 | tolerance index TI ([4]; Arabidopsis HPPD): 4E−3 | Normalized tolerance index TI [5]: 2.7 | Normalized tolerance index TI [6]: 1.1

COCCOCc1c(Cl)ccc(C2=C(O)c3ncccc3C(C)(C)S2(=O)=O)c1Cl [Inhibitor 3, 7-[2,4-dichloro-3-(2-methoxyethoxymethyl)phenyl]-5,5-dimethyl-6,6-dioxo-thiopyrano[4,3-b]pyridin-8-ol]
Normalized tolerance index TI [1]: 1.9 | Normalized tolerance index TI [2]: 1.9 | Normalized tolerance index TI [3]: 4.8 | Normalized tolerance index TI [4, 7]: 1 | Normalized tolerance index TI ([4]; Arabidopsis HPPD, Table 12): 1 | Normalized tolerance index TI [5]: 7.4 | Normalized tolerance index TI [6]: 0.7
